In this assay the test system is MV-4-11 cells. Description: Gene expression microarray analysis (Affymetrix PrimeView) and GSEA. Format: cell-based, human. More on the design: RFU PODN (11730768_x_at) / Fold change /veh PODN (11730768_x_at) / RFU LINC00158 (11744669_a_at) / Fold change /veh LINC00158 (11744669_a_at) / RFU DUSP10 (11751237_a_at) / Fold change /veh DUSP10 (11751237_a_at) / RFU ID3 (11757404_x_at) / Fold change /veh ID3 (11757404_x_at) / RFU PLEKHG5 (11737974_s_at) / Fold change /veh PLEKHG5 (11737974_s_at) / RFU LRRC4B (11730491_at) / Fold change /veh LRRC4B (11730491_at) / RFU GIMAP4 (11747438_a_at) / Fold change /veh GIMAP4 (11747438_a_at) / RFU KRT8 (11758183_x_at) / Fold change /veh KRT8 (11758183_x_at) / RFU CNN1 (11734310_a_at) / Fold change /veh CNN1 (11734310_a_at) / RFU VPS37D (11726825_at) / Fold change /veh VPS37D (11726825_at) / RFU C10orf10 (11716522_x_at) / Fold change /veh C10orf10 (11716522_x_at) / RFU KIR2DL2 /// KIR2DL4 /// KIR2DL5A /// KIR2DL5B /// KIR2DS1 /// KIR2DS2 /// KIR2DS3 /// KIR2DS4 /// KIR3DL3 /// KIR3DL3 /// KIR3DS1 (11738374_at) / Fold change /veh KIR2DL2 /// KIR2DL4 /// KIR2DL5A /// KIR2DL5B /// KIR2DS1 /// KIR2DS2 /// KIR2DS3 /// KIR2DS4 /// KIR3DL3 /// KIR3DL3 /// KIR3DS1 (11738374_at) / RFU C1QL1 (11718748_at) / Fold change /veh C1QL1 (11718748_at) / RFU TMPRSS4 (11747572_a_at) / Fold change /veh TMPRSS4 (11747572_a_at) / RFU HAMP (11756126_x_at) / Fold change /veh HAMP (11756126_x_at) / RFU RNFT2 (11725882_a_at) / Fold change /veh RNFT2 (11725882_a_at) / RFU NR4A2 (11747474_a_at) / Fold change /veh NR4A2 (11747474_a_at) / RFU ABCC12 (11746883_a_at) / Fold change /veh ABCC12 (11746883_a_at) / RFU TMEM136 (11760407_x_at) / Fold change /veh TMEM136 (11760407_x_at) / RFU CLDN22 /// WWC2 (11732394_at) / Fold change /veh CLDN22 /// WWC2 (11732394_at) / RFU HLA-DPB1 (11760878_x_at) / Fold change /veh HLA-DPB1 (11760878_x_at) / RFU SPINT1 (11716480_a_at) / Fold change /veh SPINT1 (11716480_a_at) / RFU GAP43 (11754022_s_at) / Fold change /veh GAP43 (11754022_s_at) / RFU A4GNT (11735810_at) / Fold change /veh A4GNT (11735810_at) / RFU PRB3 (11715151_x_at) / Fold change /veh PRB3 (11715151_x_at) / RFU TUBB4B (11761932_at) / Fold change /veh TUBB4B (11761932_at) / RFU CAPN14 (11732068_a_at) / Fold change /veh CAPN14 (11732068_a_at) / RFU TMCC2 (11721928_a_at) / Fold change /veh TMCC2 (11721928_a_at) / RFU IRGQ (11745062_a_at) / Fold change /veh IRGQ (11745062_a_at) / RFU FAM174B (11720279_a_at) / Fold change /veh FAM174B (11720279_a_at) / RFU TMPRSS4 (11748680_a_at) / Fold change /veh TMPRSS4 (11748680_a_at) / RFU FAM212B (11763350_a_at) / Fold change /veh FAM212B (11763350_a_at) / RFU PLEKHG5 (11743358_a_at) / Fold change /veh PLEKHG5 (11743358_a_at) / RFU ZSCAN30 (11745921_a_at) / Fold change /veh ZSCAN30 (11745921_a_at) / RFU CMKLR1 (11741424_a_at) / Fold change /veh CMKLR1 (11741424_a_at) / RFU LOC101060620 /// MAPK8IP1 (11723275_at) / Fold change /veh LOC101060620 /// MAPK8IP1 (11723275_at) / RFU SPTSSB (11747773_x_at) / Fold change /veh SPTSSB (11747773_x_at) / RFU PRSS12 (11739890_at) / Fold change /veh PRSS12 (11739890_at) / RFU BIN1 (11741810_x_at) / Fold change /veh BIN1 (11741810_x_at) / RFU WNT11 (11732464_a_at) / Fold change /veh WNT11 (11732464_a_at) / RFU C10orf10 (11716521_a_at) / Fold change /veh C10orf10 (11716521_a_at) / RFU C5orf56 (11738089_at) / Fold change /veh C5orf56 (11738089_at) / RFU CYB561 (11721691_x_at) / Fold change /veh CYB561 (11721691_x_at) / RFU ANKRD19P (11752326_a_at) / Fold change /veh ANKRD19P (11752326_a_at) / RFU OR2T12 /// OR2T33 /// OR2T8 (11738714_s_at) / Fold change /veh OR2T12 /// OR2T33 /// OR2T8 (11738714_s_at) / RFU VCAN (11748164_a_at) / Fold change /veh VCAN (11748164_a_at) / RFU JSRP1 (11732532_at) / Fold change /veh JSRP1 (11732532_at) / RFU KRTAP10-11 (11738290_x_at) / Fold change /veh KRTAP10-11 (11738290_x_at) / RFU MYO3A (11730013_a_at) / Fold change /veh MYO3A (11730013_a_at) / RFU EBF3 (11725865_a_at) / Fold change /veh EBF3 (11725865_a_at) / RFU CAMK2N1 (11719241_x_at) / Fold change /veh CAMK2N1 (11719241_x_at) / RFU C5orf56 (11738088_a_at) / Fold change /veh C5orf56 (11738088_a_at) / RFU OLFML3 (11715873_a_at) / Fold change /veh OLFML3 (11715873_a_at) / RFU LOC100653217 /// NTM (11731650_a_at) / Fold change /veh LOC100653217 /// NTM (11731650_a_at) / RFU MAPK11 (11762145_a_at) / Fold change /veh MAPK11 (11762145_a_at) / RFU FIZ1 (11724087_x_at) / Fold change /veh FIZ1 (11724087_x_at) / RFU OASL (11726364_x_at) / Fold change /veh OASL (11726364_x_at) / RFU SOX15 (11748057_x_at) / Fold change /veh SOX15 (11748057_x_at) / RFU CD79A (11719716_a_at) / Fold change /veh CD79A (11719716_a_at) / RFU HIST1H1D (11736915_at) / Fold change /veh HIST1H1D (11736915_at) / RFU CASKIN2 (11723855_a_at) / Fold change /veh CASKIN2 (11723855_a_at) / RFU LOC730098 (11760151_x_at) / Fold change /veh LOC730098 (11760151_x_at) / RFU OR4N2 (11742367_at) / Fold change /veh OR4N2 (11742367_at) / RFU PRRT2 (11749266_a_at) / Fold change /veh PRRT2 (11749266_a_at) / RFU SNX32 (11753110_a_at) / Fold change /veh SNX32 (11753110_a_at) / RFU CDHR5 (11726645_a_at) / Fold change /veh CDHR5 (11726645_a_at) / RFU RCAN1 (11760418_a_at) / Fold change /veh RCAN1 (11760418_a_at) / RFU FAM167A (11723789_a_at) / Fold change /veh FAM167A (11723789_a_at) / RFU FAM26E (11764081_at) / Fold change /veh FAM26E (11764081_at) / RFU ISYNA1 (11749810_s_at) / Fold change /veh ISYNA1 (11749810_s_at) / RFU ACY1 (11761880_at) / Fold change /veh ACY1 (11761880_at) / RFU 11764098_at / Fold change /veh 11764098_at / RFU SAMD14 (11745864_x_at) / Fold change /veh SAMD14 (11745864_x_at) / RFU NPB (11741838_a_at) / Fold change /veh NPB (11741838_a_at) / RFU TMPRSS6 (11731388_a_at) / Fold change /veh TMPRSS6 (11731388_a_at) / RFU KRTAP10-2 (11738614_at) / Fold change /veh KRTAP10-2 (11738614_at) / RFU ARHGAP8 /// PRR5-ARHGAP8 (11727945_x_at) / Fold change /veh ARHGAP8 /// PRR5-ARHGAP8 (11727945_x_at) / RFU KRTAP5-7 /// NADSYN1 (11734609_at) / Fold change /veh KRTAP5-7 /// NADSYN1 (11734609_at) / RFU RASL12 (11751679_a_at) / Fold change /veh RASL12 (11751679_a_at) / RFU CDKN2B (11736163_a_at) / Fold change /veh CDKN2B (11736163_a_at) / RFU PRF1 (11729649_at) / Fold change /veh PRF1 (11729649_at) / RFU, ZNF638 /// ZNF638-IT1 / Fold change vs veh, ZNF638 /// ZNF638-IT1 / RFU, PANK3 / Fold change vs veh, PANK3 / RFU, SH3YL1 / Fold change vs veh, SH3YL1 / RFU, ZEB2 / Fold change vs veh, ZEB2 / RFU, NRIP1 / Fold change vs veh, NRIP1 / RFU, PTTG1IP / Fold change vs veh, PTTG1IP / RFU, CAPN2 / Fold change vs veh, CAPN2 / RFU, MED14 / Fold change vs veh, MED14 / RFU, SNORA58 / Fold change vs veh, SNORA58 / RFU, C1orf63 / Fold change vs veh, C1orf63 / RFU, LRRFIP1 / Fold change vs veh, LRRFIP1 / RFU, NDUFAF7 / Fold change vs veh, NDUFAF7 / RFU, SLC12A2 / Fold change vs veh, SLC12A2 / RFU, IBTK / Fold change vs veh, IBTK / RFU, ESF1 / Fold change vs veh, ESF1 / Fold change vs veh, TMEM50B / RFU, TAOK1 / Fold change vs veh, TAOK1 / RFU, ACBD3 / Fold change vs veh, ACBD3 / RFU, TMA16 / Fold change vs veh, TMA16 / RFU, RWDD3 / Fold change vs veh, RWDD3 / RFU, BCAT1 / Fold change vs veh, BCAT1 / RFU, EDEM3 / Fold change vs veh, EDEM3 / RFU, TMEM33 / Fold change vs veh, TMEM33 / RFU, WDR75 / Fold change vs veh, WDR75 / RFU, AHCTF1 / Fold change vs veh, AHCTF1 / RFU, TFRC / Fold change vs veh, TFRC / RFU, ZDHHC17 / Fold change vs veh, ZDHHC17 / RFU, NOM1 / Fold change vs veh, NOM1 / RFU, ARL8B / Fold change vs veh, ARL8B / RFU, ZBTB11 / Fold change vs veh, ZBTB11 / RFU, TAMM41 / Fold change vs veh, TAMM41 / RFU, KIAA1704 /// LOC100996395 / Fold change vs veh, KIAA1704 /// LOC100996395 / RFU, ING1 / Fold change vs veh, ING1 / RFU, TRMT61B / Fold change vs veh, TRMT61B / RFU, FUBP3 / Fold change vs veh, FUBP3 / RFU, TP53 / Fold change vs veh, TP53 / RFU, TNKS2 / Fold change vs veh, TNKS2 / RFU, ZFP14 / Fold change vs veh, ZFP14 / RFU, ACTR2 / Fold change vs veh, ACTR2 / RFU, PPP3R1 / Fold change vs veh, PPP3R1 / RFU, PIK3R1 / Fold change vs veh, PIK3R1 / RFU, HNRNPA1 / Fold change vs veh, HNRNPA1 / RFU, RNF170 / Fold change vs veh, RNF170 / RFU, ZNF28 / Fold change vs veh, ZNF28 / RFU, RNGTT / Fold change vs veh, RNGTT / RFU, OGT / Fold change vs veh, OGT / RFU, BRD1 / Fold change vs veh, BRD1 / RFU, MARS / Fold change vs veh, MARS / RFU, ZNF655 / Fold change vs veh, ZNF655 / RFU, FAHD1 / Fold change vs veh, FAHD1 / RFU, BDP1 / Fold change vs veh, BDP1 / RFU, LRRCC1 / Fold change vs veh, LRRCC1 / RFU, ARID1A / Fold change vs veh, ARID1A / RFU, ZNF146 / Fold change vs veh, ZNF146 / RFU, ZNF330 / Fold change vs veh, ZNF330 / RFU, GPN3 / Fold change vs veh, GPN3 / RFU, C9orf123 / Fold change vs veh, C9orf123 / RFU, N4BP2L2 / Fold change vs veh, N4BP2L2 / RFU, ARFIP1 / Fold change vs veh, ARFIP1 / RFU, FAM179B / Fold change vs veh, FAM179B / RFU, BCL10 / Fold change vs veh, BCL10 / RFU, UHRF1BP1L / Fold change vs veh, UHRF1BP1L / RFU, BET1 / Fold change vs veh, BET1 / RFU, CNOT2 / Fold change vs veh, CNOT2 / RFU, ZNF268 / Fold change vs veh, ZNF268 / Fold change vs veh, ZNF507 / RFU, DGCR2 / Fold change vs veh, DGCR2 / RFU, WDSUB1 / Fold change vs veh, WDSUB1 / Fold change vs veh, HSP90B1 /// MIR3652 / RFU, ADSS / Fold change vs veh, ADSS / RFU, GK / Fold change vs veh, GK / RFU, ZNF148 / Fold change vs veh, ZNF148 / RFU, TAF9 / Fold change vs veh, TAF9 / RFU, SLC1A5 / Fold change vs veh, SLC1A5 / RFU, SLMO2 / Fold change vs veh, SLMO2 / RFU, ABCC4 / Fold change vs veh, ABCC4 / RFU, LOC101060439 /// RAP1B / Fold change vs veh, LOC101060439 /// RAP1B / RFU, RFX7 / Fold change vs veh, RFX7 / RFU, GTPBP10 / Fold change vs veh, GTPBP10 / RFU, CNEP1R1 / Fold change vs veh, CNEP1R1 / RFU, BIVM-ERCC5 /// ERCC5 / Fold change vs veh, BIVM-ERCC5 /// ERCC5 / RFU, ILF3 / Fold change vs veh, ILF3 / RFU 11762660_at / Fold change /veh 11762660_at / RFU VCAN (11757783_s_at) / Fold change /veh VCAN (11757783_s_at) / RFU DDX43 (11728927_at) / Fold change /veh DDX43 (11728927_at) / RFU KRT8 (11758188_x_at) / Fold change /veh KRT8 (11758188_x_at) / RFU NKD1 (11759106_at) / Fold change /veh NKD1 (11759106_at) / RFU SRD5A1 (11742802_a_at) / Fold change /veh SRD5A1 (11742802_a_at) / RFU TPSAB1 /// TPSB2 (11721975_s_at) / Fold change /veh TPSAB1 /// TPSB2 (11721975_s_at) / RFU GSTM3 (11746129_a_at) / Fold change /veh GSTM3 (11746129_a_at) / RFU IL23R (11737362_x_at) / Fold change /veh IL23R (11737362_x_at) / RFU TMEM51 (11727254_a_at) / Fold change /veh TMEM51 (11727254_a_at) / RFU PIWIL2 (11732686_x_at) / Fold change /veh PIWIL2 (11732686_x_at) / RFU ORM1 (11744905_x_at) / Fold change /veh ORM1 (11744905_x_at) / RFU CCDC152 (11743942_at) / Fold change /veh CCDC152 (11743942_at) / RFU ECM1 (11717891_a_at) / Fold change /veh ECM1 (11717891_a_at) / RFU IL23R (11748794_a_at) / Fold change /veh IL23R (11748794_a_at) / RFU TNFAIP8L3 (11732012_x_at) / Fold change /veh TNFAIP8L3 (11732012_x_at) / RFU MBOAT4 (11741988_at) / Fold change /veh MBOAT4 (11741988_at) / RFU 11764193_at / Fold change /veh 11764193_at / RFU TMEM53 (11763286_at) / Fold change /veh TMEM53 (11763286_at) / RFU MAGEB2 (11727129_at) / Fold change /veh MAGEB2 (11727129_at) / RFU TMEM200A (11744735_a_at) / Fold change /veh TMEM200A (11744735_a_at) / RFU CCDC152 (11751479_a_at) / Fold change /veh CCDC152 (11751479_a_at) / RFU FAM211A (11726209_a_at) / Fold change /veh FAM211A (11726209_a_at) / RFU RGS16 (11746705_a_at) / Fold change /veh RGS16 (11746705_a_at) / RFU VCAN (11755009_s_at) / Fold change /veh VCAN (11755009_s_at) / RFU RHOB (11743442_s_at) / Fold change /veh RHOB (11743442_s_at) / RFU RGS16 (11720943_a_at) / Fold change /veh RGS16 (11720943_a_at) / RFU RGS16 (11720944_at) / Fold change /veh RGS16 (11720944_at) / RFU, VPS4B / Fold change vs veh, VPS4B / RFU, CREB1 / Fold change vs veh, CREB1 / RFU, DNAJC13 / Fold change vs veh, DNAJC13 / RFU, GNAQ / Fold change vs veh, GNAQ / RFU, CDK5R1 / Fold change vs veh, CDK5R1 / RFU, ZRANB3 / Fold change vs veh, ZRANB3 / RFU, CUL4A / Fold change vs veh, CUL4A / RFU, CCNY / Fold change vs veh, CCNY / RFU, UFL1 / Fold change vs veh, UFL1 / RFU, COG3 / Fold change vs veh, COG3 / RFU, DIAPH2 / Fold change vs veh, DIAPH2 / RFU, SKA2 / Fold change vs veh, SKA2 / RFU, AFF3 / Fold change vs veh, AFF3 / RFU, LMF1 / Fold change vs veh, LMF1 / RFU, IPO11 / Fold change vs veh, IPO11 / RFU, DFFB / Fold change vs veh, DFFB / RFU, FOXP1 / Fold change vs veh, FOXP1 / RFU, CARD8 / Fold change vs veh, CARD8 / RFU, STRN3 / Fold change vs veh, STRN3 / RFU, ADK / Fold change vs veh, ADK / RFU, RASSF2 / Fold change vs veh, RASSF2 / RFU, WIPF1 / Fold change vs veh, WIPF1 / RFU, LARP1B / Fold change vs veh, LARP1B / RFU, RASA1 / Fold change vs veh, RASA1 / RFU, RB1 / Fold change vs veh, RB1 / RFU, PPFIA1 / Fold change vs veh, PPFIA1 / RFU, MAT2A / Fold change vs veh, MAT2A / RFU, CCT5 / Fold change vs veh, CCT5 / RFU, WDR92 / Fold change vs veh, WDR92 / RFU, CUX1 / Fold change vs veh, CUX1 / RFU, TTC7A / Fold change vs veh, TTC7A / RFU, TMEM135 / Fold change vs veh, TMEM135 / RFU, DEPTOR / Fold change vs veh, DEPTOR / RFU, CPM / Fold change vs veh, CPM / RFU, DNAJB6 / Fold change vs veh, DNAJB6 / RFU, CACNA2D3 / Fold change vs veh, CACNA2D3 / RFU, DTX4 / Fold change vs veh, DTX4 / RFU, TFCP2 / Fold change vs veh, TFCP2 / RFU, GMCL1 /// GMCL1P1 / Fold change vs veh, GMCL1 /// GMCL1P1 / RFU, AEBP2 / Fold change vs veh, AEBP2 / RFU, SNHG1 /// SNORD22 /// SNORD25 /// SNORD26 /// SNORD27 /// SNORD28 /// SNORD29 /// SNORD31 / Fold change vs veh, SNHG1 /// SNORD22 /// SNORD25 /// SNORD26 /// SNORD27 /// SNORD28 /// SNORD29 /// SNORD31 / Fold change (Aza/veh), C12orf56 (ProbeSet 11735607_a_at) / Fold change (ACY-1035/veh), C12orf56 (ProbeSet 11735607_a_at) / Fold change (Aza/veh), FGFR1OP (ProbeSet 11751329_s_at) / Fold change (ACY-1035/veh), FGFR1OP (ProbeSet 11751329_s_at) / Fold change (Aza/veh), VPS36 (ProbeSet 11739960_a_at) / Fold change (ACY-1035/veh), VPS36 (ProbeSet 11739960_a_at) / RFU SYPL1 (11715823_x_at) / Fold change /veh SYPL1 (11715823_x_at) / RFU IGFBP7 (11715501_s_at) / Fold change /veh IGFBP7 (11715501_s_at) / RFU REEP3 (11722064_at) / Fold change /veh REEP3 (11722064_at) / RFU IGLL1 (11728026_x_at) / Fold change /veh IGLL1 (11728026_x_at): dose or concentration left out as unconfirmed. The settings on record: MV-4-11 cells, 48 hours.

The structures appear in SMILES notation.

As for `Nc1ccc(-c2cccs2)cc1NC(=O)c1ccc2c(c1)cc(C1CC1)n2CCN1CCOCC1` [ACY-1035], the “Fold change /veh BIN1 (11741810_x_at)” value amounted to 1.15.

The values are drawn from publication PMC5218480 (PLoS ONE, 2017).
